In ChEMBL document CHEMBL1201862, “PubChem BioAssay data set” (2004):
Calls of active or inactive are those of the source. Cut-off read from the data, not from the text of the source: actives have a measured IC50 and inactives only a lower limit.

Target: Envelope glycoprotein gp160 (Human immunodeficiency virus 1, UniProt Q6QLK5)
Assay: cell-free HIV fusion peptide-binding blockers – biochemical, uHTS, fluorescence dequenching, […] (AID 1986)

Envelope glycoprotein gp160, sequence (Q6QLK5 whole entry, the tested form may be a part): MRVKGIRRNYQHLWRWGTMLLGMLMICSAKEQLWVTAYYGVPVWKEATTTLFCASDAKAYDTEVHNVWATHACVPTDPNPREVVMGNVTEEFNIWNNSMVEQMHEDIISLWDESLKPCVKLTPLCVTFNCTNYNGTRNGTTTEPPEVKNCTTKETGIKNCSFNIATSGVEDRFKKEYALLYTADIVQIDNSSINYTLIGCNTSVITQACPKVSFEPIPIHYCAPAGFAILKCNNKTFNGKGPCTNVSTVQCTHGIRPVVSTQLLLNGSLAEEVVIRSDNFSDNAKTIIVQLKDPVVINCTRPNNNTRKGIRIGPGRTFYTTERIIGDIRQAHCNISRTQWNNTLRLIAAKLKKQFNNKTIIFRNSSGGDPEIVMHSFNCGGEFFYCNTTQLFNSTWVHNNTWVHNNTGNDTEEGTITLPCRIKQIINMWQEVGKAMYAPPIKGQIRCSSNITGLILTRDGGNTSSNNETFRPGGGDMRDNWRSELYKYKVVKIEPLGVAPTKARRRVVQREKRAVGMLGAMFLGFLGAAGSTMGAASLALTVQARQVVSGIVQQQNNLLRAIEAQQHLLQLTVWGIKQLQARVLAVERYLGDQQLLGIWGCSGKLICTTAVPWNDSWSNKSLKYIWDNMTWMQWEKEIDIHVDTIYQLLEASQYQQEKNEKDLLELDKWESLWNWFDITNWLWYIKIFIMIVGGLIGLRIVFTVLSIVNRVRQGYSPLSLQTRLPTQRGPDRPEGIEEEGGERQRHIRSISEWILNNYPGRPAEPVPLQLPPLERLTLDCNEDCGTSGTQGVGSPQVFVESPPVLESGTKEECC

O=C(Nc1ccc(C(=O)O)cc1)/C(=C\C=C\c1ccccc1)NC(=O)c1cccc(Br)c1
IC50: 22.6 µM (active)
